Reference: patent publication US9976141B2, “Compositions and methods for inhibiting gene expression of Hif2alpha” (Arrowhead Madison Inc., priority 2015, dated 2018)
Strand notation (5' to 3'): a small letter for the sugar, then the base; units joined by * are phosphorothioate-linked, units joined directly phosphodiester-linked; [ ] holds rarer units or linkages, { } end groups; capitals alone tell only the bases. d = 2'-deoxy (DNA); m = 2'-O-methyl; f = 2'-fluoro

System: human EPAS1 (Hif2α) cDNA in psiCHECK2 (Renilla luciferase/EPAS1 fusion mRNA) in Hep3B cells
Assay: Efficacy screen of Hif2α RNAi triggers in vitro, dual-luciferase reporter assay (1 nM and 0.1 nM)
Assay type: cell-based
Details: Hep3B cells co-transfected with EPAS1-psiCHECK2, Renilla luciferase normalized to firefly luciferase
From the text: Candidate sequences were identified by in silico analysis and screened as chemically modified canonical siRNAs in vitro. For screening purposes, the human EPAS1 (Hif2α) cDNA sequence (accession #NM 001430) was synthesized and cloned (DNA 2.0, Menlo Park, Calif.) into a commercially-available reporter-based screening plasmid, psiCHECK2 (Promega, Madison, Wis.) which generated a Renilla luciferase/EPAS1 fusion mRNA. For RNAi trigger efficacy evaluation, Hep3B cells, a human hepatocellular carcinoma line, were plated at 10,000 cells per well in 96-well format. Each of the 187 EPAS1 RNAi triggers, in two subsets, was co-transfected at two concentrations, 1 nM and 0.1 nM, with 25 ng EPAS1-psiCHECK2 plasmid DNA per well and 0.2 μL LipoFectamine 2000 (Life Technologies) per well. Gene knockdown was determined by measuring Renilla luciferase levels normalized to the levels of constitutively-expressed firefly luciferase, also present on the psiCHECK-2 plasmid, using the Dual Luciferase Reporter Assay (Promega, Madison, Wis.) Table 5.

| Substance | Relative Rluc-Hif2α (0.1 nM RNAi trigger) | Relative Rluc-Hif2α (1 nM RNAi trigger) |
| --- | --- | --- |
| 2307 (sense fAmGfAmUfCmCfAmCfCmAfUmUfAmCfAmUfUmUfAdT; antisense dTfAmAfAmUfGmUfAmAfUmGfGmUfGmGfAmUfCmUdT*dT; siRNA) [compound 2307] | 0.800 ± 0.248 | 0.702 ± 0.142 |
| 2414 (sense fUmAfAmCfUmGfUmAfUmGfGmGfAmGfCmUfUmAfAdT; antisense dTfUmAfAmGfCmUfCmCfCmAfUmAfCmAfGmUfUmAdT*dT; siRNA) [compound 2414] | 0.422 ± 0.070 | 0.167 ± 0.038 |
| 2255 (sense fGmAfCmAfUmGfUmCfCmAfCmAfGmAfGmCfGmGfAdT; antisense dTfCmCfGmCfUmCfUmGfUmGfGmAfCmAfUmGfUmCdT*dT; siRNA) [compound 2255] | 0.653 ± 0.130 | 0.721 ± 0.055 |
| 2272 (sense fAmAfUmUfCmUfAmCfCmAfUmGfCmGfCmUfAmGfAdT; antisense dTfCmUfAmGfCmGfCmAfUmGfGmUfAmGfAmAfUmUdT*dT; siRNA) [compound 2272] | 1.028 ± 0.281 | 0.864 ± 0.197 |
| 2239 (sense fGmGfCmGfUmCfUmGfAmAfCmGfUmCfUmCfAmAfAdT; antisense dTfUmUfGmAfGmAfCmGfUmUfCmAfGmAfCmGfCmCdT*dT; siRNA) [compound 2239] | 0.225 ± 0.022 | 0.157 ± 0.017 |
| 2250 (sense fUmCfUmUfUmGfAmCfUmUfCmAfCmUfCmAfUmCfAdT; antisense dTfGmAfUmGfAmGfUmGfAmAfGmUfCmAfAmAfGmAdT*dT; siRNA) [compound 2250] | 0.255 ± 0.020 | 0.139 ± 0.046 |
| 2364 (sense fGmGfUmCfUmGfAmUfGmGfCmAfCmGfUmUfGmUfAdT; antisense dTfAmCfAmAfCmGfUmGfCmCfAmUfCmAfGmAfCmCdT*dT; siRNA) [compound 2364] | 1.070 ± 0.042 | 0.855 ± 0.282 |
| 2283 (sense fAmGfCmAfUmGfGmGfGmGfCmUfAmCfGmUfGmUfAdT; antisense dTfAmCfAmCfGmUfAmGfCmCfCmCfCmAfUmGfCmUdT*dT; siRNA) [compound 2283] | 1.175 ± 0.194 | 0.882 ± 0.026 |
| 2381 (sense fAmCfGmAfCmCfUmUfGmGfAmGfCmCfCmCfGmUfAdT; antisense dTfAmCfGmGfGmGfCmUfCmCfAmAfGmGfUmCfGmUdT*dT; siRNA) [compound 2381] | 0.756 ± 0.109 | 1.063 ± 0.191 |
| 2415 (sense fUmGfUmAfUmGfGmGfAmGfCmUfUmAfAmCfUmUfAdT; antisense dTfAmAfGmUfUmAfAmGfCmUfCmCfCmAfUmAfCmAdT*dT; siRNA) [compound 2415] | 0.180 ± 0.097 | 0.119 ± 0.015 |
| 2258 (sense fCmAfCmGfGmUfCmAfCmCfAmAfCmAfGmAfGmGfAdT; antisense dTfCmCfUmCfUmGfUmUfGmGfUmGfAmCfCmGfUmGdT*dT; siRNA) [compound 2258] | 0.882 ± 0.098 | 0.972 ± 0.168 |
| 2413 (sense fUmAfUmAfAmCfUmGfUmAfUmGfGmGfAmGfCmUfAdT; antisense dTfAmGfCmUfCmCfCmAfUmAfCmAfGmUfUmAfUmAdT*dT; siRNA) [compound 2413] | 0.675 ± 0.104 | 0.317 ± 0.055 |
| 2329 (sense fCmUfGmAfCmCfAmGfAmUfAmUfGmAfCmUfGmUfAdT; antisense dTfAmCfAmGfUmCfAmUfAmUfCmUfGmGfUmCfAmGdT*dT; siRNA) [compound 2329] | 0.807 ± 0.117 | 0.456 ± 0.064 |
| 2407 (sense fAmCfGmUfAmAfCmGfAmUfUmUfCmAfUmGfAmAfAdT; antisense dTfUmUfCmAfUmGfAmAfAmUfCmGfUmUfAmCfGmUdT*dT; siRNA) [compound 2407] | 0.222 ± 0.027 | 0.124 ± 0.021 |
| 2262 (sense fUmCfCmUfCmAfCmAfAmUfAmGfUmCfUmGfUmGfAdT; antisense dTfCmAfCmAfGmAfCmUfAmUfUmGfUmGfAmGfGmAdT*dT; siRNA) [compound 2262] | 0.755 ± 0.031 | 0.277 ± 0.071 |
| 2286 (sense fAmUfCmUfAmCfAmAfCmCfCmUfCmGfCmAfAmCfAdT; antisense dTfGmUfUmGfCmGfAmGfGmGfUmUfGmUfAmGfAmUdT*dT; siRNA) [compound 2286] | 1.291 ± 0.367 | 0.878 ± 0.078 |
| 2249 (sense fGmGfAmCfAmUfAmGfUmAfUmCfUmUfUmGfAmCfAdT; antisense dTfGmUfCmAfAmAfGmAfUmAfCmUfAmUfGmUfCmCdT*dT; siRNA) [compound 2249] | 0.303 ± 0.042 | 0.190 ± 0.028 |
| 2233 (sense fUmCfCmGfAmCfUmCfCmCfAmGfCmAfUmUfCmGfAdT; antisense dTfCmGfAmAfUmGfCmUfGmGfGmAfGmUfCmGfGmAdT*dT; siRNA) [compound 2233] | 0.913 ± 0.019 | 0.862 ± 0.125 |
| 2313 (sense fAmGfUmGfGmGfCmCfGmUfCmGfGmGfGmAfUmCfAdT; antisense dTfGmAfUmCfCmCfCmGfAmCfGmGfCmCfCmAfCmUdT*dT; siRNA) [compound 2313] | 0.853 ± 0.133 | 0.886 ± 0.243 |
| 2385 (sense fUmGfGmUfUmUfUmUfCmAfAmUfAmCfCmAfAmUfAdT; antisense dTfAmUfUmGfGmUfAmUfUmGfAmAfAmAfAmCfCmAdT*dT; siRNA) [compound 2385] | 0.701 ± 0.178 | 0.515 ± 0.089 |
| 2267 (sense fUmUfGmGfCmCfGmCfUmCfAmGfCmCfUmAfUmGfAdT; antisense dTfCmAfUmAfGmGfCmUfGmAfGmCfGmGfCmCfAmAdT*dT; siRNA) [compound 2267] | 1.029 ± 0.104 | 0.651 ± 0.049 |
| 2353 (sense fUmGfCmCfAmUfAmGfGmUfGmUfGmAfCmAfAmUfAdT; antisense dTfAmUfUmGfUmCfAmCfAmCfCmUfAmUfGmGfCmAdT*dT; siRNA) [compound 2353] | 0.635 ± 0.156 | 0.324 ± 0.075 |
| 2238 (sense fUmCfGmGfCmGfUmCfUmGfAmAfCmGfUmCfUmCfAdT; antisense dTfGmAfGmAfCmGfUmUfCmAfGmAfCmGfCmCfGmAdT*dT; siRNA) [compound 2238] | 0.208 ± 0.023 | 0.148 ± 0.024 |
| 2411 (sense fGmAfAmUfUmCfCmUfAmCfUmGfAmCfAmAfCmAfAdT; antisense dTfUmGfUmUfGmUfCmAfGmUfAmGfGmAfAmUfUmCdT*dT; siRNA) [compound 2411] | 0.796 ± 0.110 | 0.410 ± 0.083 |
| 2297 (sense fCmAfAmUfGmCfAmGfUmAfCmCfCmAfGmAfCmGfAdT; antisense dTfCmGfUmCfUmGfGmGfUmAfCmUfGmCfAmUfUmGdT*dT; siRNA) [compound 2297] | 0.704 ± 0.083 | 0.643 ± 0.028 |
| 2324 (sense fGmGfAmCfUmAfCmAfGmCfCmUfGmUfCmGfUmCfAdT; antisense dTfGmAfCmGfAmCfAmGfGmCfUmGfUmAfGmUfCmCdT*dT; siRNA) [compound 2324] | 1.081 ± 0.293 | 1.046 ± 0.208 |
| 2328 (sense fGmCfAmUfGmGfCmAfAmGfCmCfGmGfCmUfGmCfAdT; antisense dTfGmCfAmGfCmCfGmGfCmUfUmGfCmCfAmUfGmCdT*dT; siRNA) [compound 2328] | 1.291 ± 0.109 | 1.192 ± 0.144 |
| 2412 (sense fUmCfCmUfAmCfUmGfAmCfAmAfCmAfUmUfAmUfAdT; antisense dTfAmUfAmAfUmGfUmUfGmUfCmAfGmUfAmGfGmAdT*dT; siRNA) [compound 2412] | 0.515 ± 0.037 | 0.291 ± 0.014 |
| 2341 (sense fUmCfAmAfCmUfCmCfAmAfCmGfUmAfUmGfUmGfAdT; antisense dTfCmAfCmAfUmAfCmGfUmUfGmGfAmGfUmUfGmAdT*dT; siRNA) [compound 2341] | 0.378 ± 0.116 | 0.202 ± 0.018 |
| 2361 (sense fGmGfAmGfCmAfCmUfGmCfGmCfGmCfUmAfUmCfAdT; antisense dTfGmAfUmAfGmCfGmCfGmCfAmGfUmGfCmUfCmCdT*dT; siRNA) [compound 2361] | 0.800 ± 0.198 | 0.603 ± 0.133 |
